In patent publication US20060046981A1, “Anti-nonmelanoma carcinoma compounds, compositions, and methods of use thereof” (GILEAD SCIENCES, INC., priority 2003, published 2006):
Where two headings read alike, the source gives them in different places.

Columns and labels:
SiHa cells = test: Antiproliferation assay (7 days, Sulforhodamine B) in SiHa cells; format: cell-based, human; details: for Selectivity (HEL/SiHa): HEL EC50 divided by SiHa EC50; for Selectivity for SiHa cells compared with HEL cells: Example 80, also versus PHK keratinocytes, fold
Procedure: Antiproliferation assays measure effect of compounds on proliferation of cultured cells. Cells are cultured for 7 days in the presence of various concentrations of compounds. On the 7th day, cells are stained with dye, and intensity of staining (proportional to cell number) is measured by spectrophotometer.
(§1) Cells were detached from culture flasks using trypsin, counted, and plated in 96-well culture plates (250-1000 cells per well, depending on cell type). On the next day (defined as day 0), after cells attached to the bottom of plates, 5-fold serial dilutions of compounds were added in duplicate. No compound and 10 μM colchicine (cell division inhibitor) was added to control wells, which would represent 100% proliferation and 0% proliferation, respectively.
(§2) Seven days after addition of compounds, culture plates were treated with 10% trichloroacetic acid at 4° C. for 1 hr, then washed with water. This procedure allows cell-derived proteins to bind to the bottom surface of plates. Proteins were stained with 0.4% Sulforhodamine B in 1% acetic acid for 10 minutes, followed by extensive washing with 1% acetic acid. Remaining dye bound to the bottom of plates was dissolved in 10 mM Trizma base. This generated purple color that was quantified by measuring the absorbance at 510 nm wavelength, using spectrophotometer.
(§3) Cells were detached from culture flasks using trypsin, counted, and plated in 96-well culture plates ([…], depending on cell type). On the next day (defined as day 0), 5-fold serial dilutions of compounds were added in duplicate. Seven days after addition of compounds, culture plates were treated with 10% trichloroacetic acid at 4° C. for 1 hr and washed with water. This procedure allows cellular proteins to bind to the bottom surface of plates. Proteins were stained with 0.4% Sulforhodamine B in 1% acetic acid for 10 minutes, followed by extensive washing with 1% acetic acid. Remaining dye bound to the bottom of plates was solubilized in 10 mM Trizma base, generating purple color. Intensity of the color (proportional to cell number) was quantified by measuring the absorbance at 510 nm wavelength, using spectrophotometer. […] GraphPad Prism version 4.00 for Windows (GraphPad Software, San Diego Calif. USA) was used for the curve fitting and EC50 calculation.

HEL cells = test: Antiproliferation assay (7 days, Sulforhodamine B) in HEL fibroblasts; format: cell-based, human; details: read-out: Antiproliferation EC50 HEL lung fibroblast
Procedure: as §1, §2, §3

PHK skin keratinocytes = test: cells; format: cell-based; details: Homo sapiens, Keratinocyte; Table 79-3; read-out: Antiproliferation EC50 PHK skin keratinocytes
[1] = test system: CK cervical keratinocytes; test: cells; format: cell-based; details: Homo sapiens, Keratinocyte; Table 79-3; read-out: Antiproliferation EC50 CK cervical keratinocytes
CaSki cells = test: Antiproliferation assay in CaSki cells; format: cell-based; details: Homo sapiens, Ca-Ski; Table 79-4; read-out: Antiproliferation EC50 in HPV positive carcinoma cells CaSki HPV16
HeLa cells = test: Antiproliferation assay in HeLa cells; format: cell-based; details: Homo sapiens, Table 79-4, read-out: Antiproliferation EC50 in HPV positive carcinoma cells HeLa HPV18
MS751 cells = test: Antiproliferation assay in MS751 cells; format: cell-based; details: Homo sapiens, Table 79-4, read-out: Antiproliferation EC50 in HPV positive carcinoma cells MS-751 HPV18
C-4 I cells = test: Antiproliferation assay in C-4 I cells; format: cell-based; details: Homo sapiens, Table 79-4, read-out: Antiproliferation EC50 in HPV positive carcinoma cells C-41 HPV18
ME-180 cells = test: Antiproliferation assay in ME-180 cells; format: cell-based; details: Homo sapiens, Table 79-4, read-out: Antiproliferation EC50 in HPV positive carcinoma cells ME-180 HPV39
HT-3 cells = test: Antiproliferation assay in HT-3 cells; format: cell-based; details: Homo sapiens, Table 79-4, read-out: Antiproliferation EC50 in HPV negative carcinoma cells HT-3 cervix
SCC-4 cells = test: Antiproliferation assay in SCC-4 cells; format: cell-based; details: Homo sapiens, Table 79-4, read-out: Antiproliferation EC50 in HPV negative carcinoma cells SCC-4 tongue
SCC-9 cells = test: Antiproliferation assay in SCC-9 cells; format: cell-based; details: Homo sapiens, Table 79-4, read-out: Antiproliferation EC50 in HPV negative carcinoma cells SCC-9 tongue
HPV-16 SiHa cells = format: cell-based, human; details: day 7, 0.2 μg/mL, Annexin V-Propidium iodide double staining
[2] = Homo sapiens, SiHa, 168 h, Table 79-2, 7 days, read-out: Antiproliferation EC50 SiHa cervical carcinoma (HPV16)
[3] = Homo sapiens, HEL, 168 h, Table 79-2, 7 days
[4] = Homo sapiens, SiHa, Table 79-3, read-out: Antiproliferation EC50 SiHa cervical carcinoma (HPV16)
[5] = Table 79-2, 7 days, read-out: Antiproliferation EC50 SiHa cervical carcinoma (HPV16)

Row | Compound | Selectivity (HEL/SiHa) (SiHa cells; Table 79-2) | EC50 (SiHa cells; [2]) | EC50 (HEL cells; [3]) | further results
1 | CN(C)/N=N/c1[nH]cnc1C(N)=O [Dacarba-zine, Dacarbazine] | 3.98 | 7400 nM | 29500 nM | 
2 | CC[C@]1(O)C[C@@H]2CN(CCc3c([nH]c4ccccc34)[C@@](C(=O)OC)(c3cc4c(cc3OC)N(C)[C@H]3[C@@](O)(C(=O)OC)[C@H](OC(C)=O)[C@]5(CC)C=CCN6CC[C@]43[C@@H]65)C2)C1 [Vinblastine] | 0.39 | 0.68 nM | 0.27 nM | 
3 | Nc1ccn(C[C@@H](CO)OCP(=O)(O)O)c(=O)n1 [Cidofovir] | 0.3 | 84000 nM | 28000 nM | 
4 | C[C@H]1O[C@@H](n2cc(F)c(=O)[nH]c2=O)[C@H](O)[C@@H]1O [Doxifluridine] | 0.449 | 8760 nM | 3930 nM | 
5 | COc1cc([C@@H]2c3cc4c(cc3[C@@H](O[C@@H]3O[C@@H]5CO[C@@H](C)O[C@H]5[C@H](O)[C@H]3O)[C@H]3COC(=O)[C@H]23)OCO4)cc(OC)c1O [Etoposide] | 0.31 | 469 nM | 144 nM | 
6 | O=C1c2c(O)ccc(O)c2C(=O)c2c(NCCNCCO)ccc(NCCNCCO)c21 [Mitoxantrone] | <0.37 | 8.67 nM | < 3.2 nM | 
7 | Nc1ccn([C@@H]2O[C@H](CO)[C@@H](O)[C@@H]2O)c(=O)n1 [AraC, cytarabine] | 0.113 | 257 nM | 29 nM | Selectivity for SiHa cells compared with HEL cells (SiHa cells): did not show such selectivity; EC50 (SiHa cells; [4]): 257 nM; EC50 (SiHa cells; Homo sapiens, SiHa, Table 79-4, read-out: Antiproliferation EC50 in HPV positive carcinoma cells SiHa HPV16): 257 nM; EC50 (SiHa cells; Homo sapiens, six HPV positive cell lines: SiHa, CaSki, HeLa, MS751, C-4I, ME-180, read-out: Antiproliferation EC50 values, range over all cell lines): 94 to 257 nM; Selectivity (CK/SiHa) (SiHa cells; Table 79-3): 0.4; Selectivity (PHK/SiHa) (SiHa cells; Table 79-3): 0.57; EC50 (PHK skin keratinocytes): 147 nM; EC50 [1]: 107 nM; EC50 (CaSki cells): 94 nM; EC50 (HeLa cells): 174 nM; EC50 (MS751 cells): 144 nM; EC50 (C-4 I cells): 123 nM; EC50 (ME-180 cells): 101 nM; EC50 (HT-3 cells): 214 nM; EC50 (SCC-4 cells): 74 nM; EC50 (SCC-9 cells): 68 nM
8 | Bleomycin | 0.01 |  |  | EC50 (SiHa cells; [5]): 3140 nM; EC50 (HEL cells; Table 79-2, 7 days): 20.3 nM
9 | COc1cc2c(c(N)c1OC)C(=O)/C(=C\c1cc(C)c(O)c(C)c1)C2 [Indanosine, Indanocine] |  |  |  | EC50 (SiHa cells; Homo sapiens, SiHa, 168 h, read-out: Antiproliferation EC50 SiHa cervical carcinoma (HPV16)): 588 nM; EC50 (HEL cells; Homo sapiens, HEL, 168 h): 159 nM
10 | CC[C@]1(O)C[C@H]2CN(CCc3c([nH]c4ccccc34)[C@@](C(=O)OC)(c3cc4c(cc3OC)N(C=O)[C@H]3[C@@](O)(C(=O)OC)[C@H](OC(C)=O)[C@]5(CC)C=CCN6CC[C@]43[C@@H]65)C2)C1 [Vincristine] | 1.55 | 1.24 nM | 1.92 nM | 
11 | Nc1ccn([C@@H]2O[C@H](CO)[C@@H](O)C2(F)F)c(=O)n1 [gemcitabine] |  |  |  | Selectivity for SiHa cells compared with HEL cells (SiHa cells): did not show such selectivity
12 | Cc1c2ccncc2c(C)c2c1[nH]c1ccccc12 [Ellipticine] | 1.02 | 478 nM | 486 nM | 
13 | COc1cccc2c1C(=O)c1c(O)c3c(c(O)c1C2=O)C[C@@](O)(C(=O)CO)C[C@@H]3O[C@H]1C[C@H](N)[C@H](O)[C@H](C)O1 [Doxorubicin] | 0.43 | 9.76 nM | 4.2 nM | 
14 | Nc1nc2c(ncn2CCOCP(=O)(O)O)c(=O)[nH]1 [PMEG, 9-(2-phosphonylmethoxyethyl)guanine] | 4.1 | 207 nM | 861 nM | Selectivity for SiHa cells compared with HEL cells (SiHa cells): did not show such selectivity; EC50 (SiHa cells; [4]): 207 nM; Selectivity (CK/SiHa) (SiHa cells; Table 79-3): 2.4; Selectivity (PHK/SiHa) (SiHa cells; Table 79-3): 0.48; EC50 (PHK skin keratinocytes): 101 nM; EC50 [1]: 501 nM; % of apoptotic cells in the culture (HPV-16 SiHa cells): 1.2%
15 | COc1cc([C@@H]2c3cc4c(cc3[C@H](O)[C@H]3COC(=O)[C@H]23)OCO4)cc(OC)c1OC [Podofilox] |  |  |  | Selectivity for SiHa cells compared with HEL cells (SiHa cells): showed no selectivity
16 | C[C@@]1(CO)[C@H](O)CC[C@@]2(C)[C@H]1CC[C@H]1C[C@@H]3C[C@@]12CC[C@]3(O)CO [Aphidicolin (+), Aphidicolin] | 0.40 |  |  | EC50 (SiHa cells; [5]): 856 nM; EC50 (HEL cells; Table 79-2, 7 days): 324 nM
